According to patent US20180071313A1, “DRY EYE THERAPEUTIC AGENT […] ESTER THEREOF OR M[…] ESTER THEREOF AS AN ACTIVE INGREDIENT” (SANTEN PHARMACEUTICAL CO., LTD., priority 2015, published 2018):

How the values were obtained:
TL in tears = experiment: Pharmacological Study (1): amount of TL in tears after administration to eyelid skin; format: in vivo, Rabbits (Japanese White, females); settings: cream 1% (w/v), eyelid skin of one eye, once per day 40 μL, two weeks after application vs before; rabbits with lower lacrimal gland and nictitating membrane excised, ketoconazole; mean ± standard error, n=4
Protocol: A study was conducted in rabbits as to whether or not the administration of nandrolone decanoate and methenolone acetate to eyelid skin increases the amount of TL in tears.
A cream containing 1% (w/v) of nandrolone decanoate, a cream containing 1% (w/v) of methenolone acetate and a base were prepared in the manner of the compositions indicated in Table 1.
Rabbits (Japanese White, females, purchased from Kitayama Labes Co., Ltd.) were used in the study. […]
Schirmer test paper (Showa Yakuhin Kako Co., Ltd.) was inserted into the conjunctival sac of the lower eyelid before application and two weeks after application to collect tears, followed by subjecting each of the collected tear specimens to slab gel electrophoresis. Following electrophoresis, the gel was stained with Coomassie Brilliant Blue stain, all protein bands, including the TL band at a molecular weight of about 17 kilodaltons, were detected, and the percentage of TL (% TL) in the total amount of protein present in the tears was calculated by image analysis of the resulting gel. The difference between the % TL before application and the % TL after application was determined for each individual and expressed as an increase in % TL (A % TL).

[1] = Pharmacokinetics Study (2): nandrolone concentration in the lacrimal glands after nandrolone decanoate to eyelid skin or instillation; format: in vivo, Rabbits (Japanese White, males); settings: 2, 4, 8, 24 hours, LC-MS/MS, FIG. 2
Protocol: A study was conducted for change over time of nandrolone concentration in the lacrimal glands after administration of nandrolone decanoate to eyelid skin, or instillation thereof.
0.4 g of nandrolone decanoate were added to castor oil followed by bringing to a volume of 20 mL and dissolving therein to prepare an ointment containing 2% (w/v) of nandrolone decanoate. In addition, a preparation of the same composition was used as an ophthalmic solution containing nandrolone decanoate.
Rabbits (Japanese White, males, purchased from Kitayama Labes Co., Ltd.) were used in the study. Fur of the right upper eyelid was shaved by using an electric hair clipper under general anesthesia on the day before drug administration followed by fitting the rabbits with Elizabethan collars prior to administration. […]
The rabbits were euthanized at 2, 4, 8 and 24 hours after administration and the right upper lacrimal gland tissue was excised (from 3 animals at each time). The lacrimal gland tissue was homogenized in methanol and the concentration of nandrolone (active form of nandrolone decanoate) in the centrifuged supernatant was measured by LC-MS/MS. The concentration of nandrolone in the lacrimal gland tissue was calculated from the wet weight of the tissue measured prior to homogenization and the concentration of nandrolone in the measured specimen.

[2] = test system: lipophilin CL2 (L-CL2) gene; experiment: Pharmacological Study (2): expression level of lipophilin CL2 (L-CL2) gene in lacrimal gland cells, quantitative PCR; format: cell-based, rabbits (Japanese White, females); settings: isolated rabbit lacrimal gland cells, drug culture for 2 days, 0.1% DMSO; FIG. 3
Protocol: A comparative study of the action of increasing the expression level of lipophilin CL2 (L-CL2) gene by both nandrolone decanoate and methenolone acetate was conducted by allowing both drugs to act on lacrimal gland tissue cells. Furthermore, lipophilins are proteins that are synthesized in the lacrimal gland and are observed to be present in large amounts in the tears of humans and rabbits.
Each drug was dissolved in DMSO followed by diluting with DMEM/F-12 (D/F medium) to a final DMSO concentration of 0.1%. […]
Quantitative PCR was carried out by using primers designed by respectively joining to cDNA synthesized from the drug-treated lacrimal gland cells using the CellAmp Direct RNA Prep Kit and PrimeScript RT MasterMix (both manufactured by Takara Bio, Inc.), the QuantiFast SYBR Green PCR Kit (Qiagen Corp.), Rabbit L-CL2 gene (Accession No.: NM_001082095) and Rabbit GAPDH gene (Accession No.: NM_001082253). The expression level of L-CL2 gene of each of the drug-treated cells was corrected with expression of each GAPDH gene and expressed as the relative ratio to the expression level of cells treated with base (D/F medium containing 0.1% DMSO).

Question: For `CCCCCCCCCC(=O)O[C@H]1CC[C@H]2[C@@H]3CCC4=CC(=O)CC[C@@H]4[C@H]3CC[C@]12C` [Nandrolone decanoate, 17β-decanoyloxy-19-nor-4-androsten-3-one], which “Δ % TL (increase in percentage of TL in total tear protein)” value (TL in tears) is on record?
Answer: 4.30 ± 0.473%

Question: And the “concentration of nandrolone in the lacrimal gland over time” value ([1]; single 50 μL ointment 2% (w/v) nandrolone decanoate to right upper eyelid skin)?
Answer: somewhat lower than the concentration of methenolone in lacrimal gland tissue after administration of methenolone acetate to eyelid skin

Question: What about the “concentration of nandrolone in the lacrimal gland over time” value ([1]; single 50 μL ophthalmic solution 2% (w/v) nandrolone decanoate by instillation into right eye) of the same molecule?
Answer: much lower than in the case of administration to eyelid skin

Question: What about the “expression of L-CL2 gene (corrected with GAPDH, relative ratio to base-treated cells)” value [2] of the same molecule?
Answer: increases expression of L-CL2 gene in lacrimal gland cells
